Experimental data from PubChem BioAssay AID624330 (Southern Research Specialized Biocontainment Screening …, 2012).

Biological target: Rac GTPase-activating protein 1 (Homo sapiens) (UniProt Q9H0H5)
Experiment: blockers of MgcRacGAP-driven Rac1 GTP hydrolysis – biochemical, ADP Hunter fluorescence, primary and confirmatory, confirmation (AID 624330);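 further: fluorescence reports GDP produced by GAP-driven GTP hydrolysis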
Conditions: MgcRacGAP-stimulated Rac1 GTP hydrolysis, GST-tagged Rac1 F28L mutant substrate

Sequence of Rac GTPase-activating protein 1 (Homo sapiens) (Q9H0H5 whole entry, looked up): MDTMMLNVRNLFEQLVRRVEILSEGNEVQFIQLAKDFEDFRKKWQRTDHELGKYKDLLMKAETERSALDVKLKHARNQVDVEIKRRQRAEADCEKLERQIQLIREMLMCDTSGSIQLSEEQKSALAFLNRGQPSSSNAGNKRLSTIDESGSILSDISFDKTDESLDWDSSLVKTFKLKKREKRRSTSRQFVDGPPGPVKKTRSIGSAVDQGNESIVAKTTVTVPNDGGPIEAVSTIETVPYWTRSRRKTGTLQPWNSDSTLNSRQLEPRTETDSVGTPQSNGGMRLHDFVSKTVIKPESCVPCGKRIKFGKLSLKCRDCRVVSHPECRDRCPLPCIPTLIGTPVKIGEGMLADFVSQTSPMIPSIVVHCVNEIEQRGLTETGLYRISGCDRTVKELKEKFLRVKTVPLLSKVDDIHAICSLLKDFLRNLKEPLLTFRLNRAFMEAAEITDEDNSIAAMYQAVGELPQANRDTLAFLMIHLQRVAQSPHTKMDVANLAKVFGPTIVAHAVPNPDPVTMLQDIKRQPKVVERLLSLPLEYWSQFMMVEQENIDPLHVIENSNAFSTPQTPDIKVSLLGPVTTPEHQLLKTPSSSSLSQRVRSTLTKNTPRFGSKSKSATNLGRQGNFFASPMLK

IC50 [µM]	Compound
67.9	C#CCOCCOCCOCCNc1nc(N2CCN(C(=O)[C@H](CCCCN)n3cc([C@@H](N)C(C)CC)nn3)CC2)nc(N2CCN(C(=O)[C@H](Cc3cc4ccccc4[nH]3)n3cc([C@@H](N)C(C)CC)nn3)CC2)n1 (some centres not stated)
49.6	C#CCOCCOCCOCCNc1nc(N2CCN(C(=O)CCCCCCCCCCNC(=O)[C@@H](CCSC)n3cc(CCO)nn3)CC2)nc(N2CCN(C(=O)CCCCCCCCCCNC(=O)[C@H](CO)n3cc(CCCCCN)nn3)CC2)n1
